In PubChem BioAssay (NCI):
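GI50 = concentration required for 50% inhibition of growth. The concentration for full growth arrest is given as TGI.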

Tests used:
Assay in all cases: growth of human tumour cells (NCI), 384-well format; in the data active = GI50 below about 0.43 µM; inactive = the rest
HCC-2998 colon = tested on: HCC-2998 colon
HCT-15 colon = tested on: HCT-15 colon
M14 melanoma = tested on: M14 melanoma
ACHN renal = tested on: ACHN renal
SF-295 CNS = tested on: SF-295 CNS
UACC-257 melanoma = tested on: UACC-257 melanoma
BT-549 breast = tested on: BT-549 breast
NCI-H226 lung = tested on: NCI-H226 lung
NCI/ADR-RES ovarian = tested on: NCI/ADR-RES ovarian
A549 NSCLC = tested on: A549 NSCLC
MDA-MB-435 melanoma = tested on: MDA-MB-435 melanoma
U251 glioblastoma = tested on: U251 glioblastoma
LOX IMVI melanoma = tested on: LOX IMVI melanoma

CC(O)[C@H](NC(=O)N[C@@H](CC(N)=O)c1nc(N2CCNCC2)no1)C(=O)O (stereo partly specified)
inactive: GI50 (HCC-2998 colon) > 100 µM | GI50 (HCT-15 colon) > 100 µM | GI50 (M14 melanoma) > 100 µM | GI50 (ACHN renal) > 100 µM | GI50 (SF-295 CNS) > 100 µM | GI50 (UACC-257 melanoma) > 100 µM | GI50 (BT-549 breast) > 100 µM | GI50 (NCI-H226 lung) > 100 µM | GI50 (NCI/ADR-RES ovarian) > 100 µM | GI50 (A549 NSCLC) > 100 µM | GI50 (MDA-MB-435 melanoma) > 100 µM | GI50 (U251 glioblastoma) > 100 µM | GI50 (LOX IMVI melanoma) > 100 µM
> 100 µM: TGI (HCC-2998 colon) | TGI (HCT-15 colon) | TGI (M14 melanoma) | TGI (ACHN renal) | TGI (SF-295 CNS) | TGI (UACC-257 melanoma) | TGI (BT-549 breast) | TGI (NCI-H226 lung) | TGI (NCI/ADR-RES ovarian) | TGI (A549 NSCLC) | TGI (MDA-MB-435 melanoma) | TGI (U251 glioblastoma) | TGI (LOX IMVI melanoma)
